US5190981A, “Formulation containing S(+) enantiomer of flurbiprofen or ketoprofen and method of use for oral administration for prevention and treatment of bone loss associated with periodontal disease” (Sepracor Inc., priority 1991, dated 1993)

Key:
[1] = Bioavailability of flurbiprofen enantiomers in toothpaste: five-way blinded crossover, blood levels over 24 h after toothbrushing, chiral HPLC; type: in vivo, human (healthy adult volunteers); details: for initial plasma concentrations of each enantiomer across formulations: from toothpaste formulation to toothpaste formulation; for initial plasma concentrations of each enantiomer across formulations / accumulation of enantiomers: data not shown; for accumulation of enantiomers: repeated use
From the text: The purpose of this study was to show how well subjects tolerated three strengths of S(+) flurbiprofen toothpaste (1%, 0.5% and 0.25%), as well as the relationship between dose and blood level of the active isomer in comparison with an identical formulation of racemic flurbiprofen (1%) or an intermediate formulation of 80% S(+) flurbiprofen and 20% R(-) flurbiprofen (1%). A toothpaste containing one of the three concentrations of S(+) flurbiprofen, the 1% intermediate formulation or 1% racemic flurbiprofen were used in the study.
The drug is an acid and, therefore, the formulation was adjusted to pH 5.6, in order to improve buccal absorption. The formulation also contained menthol or wintergreen in order to mask the slight bitter taste of the drug. Standard formulation techniques were used.
Eight healthy adult volunteers were selected as subjects for the five-way, blinded, crossover study of flurbiprofen blood levels over a 24 hour period following toothbrushing with toothpastes containing the different concentrations of S(+) flurbiprofen and R(-) flurbiprofen. Each volunteer brushed with about 1 g of a toothpaste formulation for 1 minute followed by rinsing twice daily for 3 days. On the fourth morning, brushing with 1 g of the toothpaste formulation was repeated and blood samples were collected for subsequent analysis at -0.25, 0.25, 1, 2, 4, 8, 12, 23 and 24 hours relative to this toothbrushing episode. Each treatment period was followed by a washout interval of 4 days before the next toothpaste formulation was provided.
The concentration of the individual enantiomers was determined by HPLC on chiral-APG (5μ. 100×4 mm). The mobile phase was 1% 2-propanol in 10 mM NaH2 PO4 buffer, pH 7.0, at 0.6 ml/min. The enantiomers were detected by fluorescence monitoring with excitation at 250 nm and emission at 315 nm. The individual enantiomers were detectable down to 5-10 ng/ml. Standard and calibration curves were prepared for each set of samples and an internal standard of S(+) ibuprofen was added to all samples. Pharmacokinetic calculations were non-compartmental and employed conventional data analysis (linear trapezoidal role) to determine the concentrations or total amounts for each enantiomer and formulation that were analyzed.
The results of this study are presented as follows: 1% by weight racemic flurbiprofen (1S, 1R); 1% by weight 80% S(+) flurbiprofen, 20% R(-) flurbiprofen as a eutectic mixture (2S, 2R); 1% by weight 95% S(+) flurbiprofen, 5% R(-) flurbiprofen (3S); 0.5% by weight 95% S(+) fluriprofen, 5% R(-) flurbiprofen (4S); and 0.25% by weight 95% S(+) flurbiprofen, 5% R(-) flurbiprofen (5S). It should be noted that approximately equivalent amounts (5 mg) of S(+)flurbiprofen were administered in results denoted 1S and 4S. The results from the present study have been further compared with calculations based on results from a previous study by Stalker et al. "Bioavailability of Flurbiprofen following Buccal Administration", Pharm Res. 8, 605-608 (1991). The calculated amounts of administered enantiomer in this previous study are 5 mg buccal S(+) flurbiprofen as a mouthwash (buccal S) or 5 mg PO S(+) flurbiprofen (PO S).

[2] = oral; cited from earlier work

| Compound | initial plasma concentrations of each enantiomer across formulations [1] | accumulation of enantiomers ([1]; toothpaste) | absorption when taken orally [2] | absorption of S(+) enantiomer alone vs as racemic mixture ([1]; comparison of 1S and 4S, toothpaste) | blood concentration and persistence, toothpaste vs mouthwash or PO ([1]; equivalent amounts of S(+) flurbiprofen, e.g. 1S and 4S compared to buccal S or PO S) | dose relationship of plasma concentrations, 0.25% to 0.5% ([1]; toothpaste between 0.25% and 0.5% by weight) | dose relationship of plasma concentrations at 1% ([1]; toothpaste, 1% by weight) |
| --- | --- | --- | --- | --- | --- | --- | --- |
| C[C@@H](C(=O)O)c1ccc(-c2ccccc2)c(F)c1 [R(-) flurbiprofen] | approximately the same | no accumulation | – | – | – | – | – |
| C[C@H](C(=O)O)c1ccc(-c2ccccc2)c(F)c1 [S(+) flurbiprofen] | approximately the same | no accumulation | readily absorbed | preferentially absorbed when administered alone in a toothpaste formulation than when administered as a racemic mixture | higher and its availability is more persistent when in a toothpaste formulation | dose dependent relationship of plasma concentrations | non-linear at 1% by weight |
